These results are taken from ChEMBL document CHEMBL2331222, “Discovery of novel inhibitors of signal transducer and activator of transcription 3 (STAT3) signaling pathway by virtual screening” (Eur J Med Chem, 2013).

Active and inactive are the calls of the source. The rule behind the calls is not given here.

Test [1] deals with MDA-MB-468. In words: Cytotoxicity against human MDA-MB-468 cells harboring constitutively harboring activated STAT3 assessed as inhibition of cell viability at 10 uM after 72 hrs by MTT assay. It counts as functional. To be noted: MDA-MB-468, 72 h. A general note: Formazan colour is commonly taken as a measure of viable cells.
Test [2] has as its target T1, Signal transducer and activator of transcription 3 (Homo sapiens, UniProt P40763). Put plainly: Inhibition of STAT3 in IL-6-stimulated human HepG2 cells at 10 uM treated for 1 hr prior to IL-6 challenge measured after 5.5 hrs by luciferase reporter gene assay. It is filed as cell-based. Background: Reporter assays use an easily measured gene product as a stand-in for the process of interest.

Test [3] concerns the target T2, Signal transducer and activator of transcription 1-alpha/beta (Homo sapiens) (UniProt P42224).
T2 sequence (whole entry): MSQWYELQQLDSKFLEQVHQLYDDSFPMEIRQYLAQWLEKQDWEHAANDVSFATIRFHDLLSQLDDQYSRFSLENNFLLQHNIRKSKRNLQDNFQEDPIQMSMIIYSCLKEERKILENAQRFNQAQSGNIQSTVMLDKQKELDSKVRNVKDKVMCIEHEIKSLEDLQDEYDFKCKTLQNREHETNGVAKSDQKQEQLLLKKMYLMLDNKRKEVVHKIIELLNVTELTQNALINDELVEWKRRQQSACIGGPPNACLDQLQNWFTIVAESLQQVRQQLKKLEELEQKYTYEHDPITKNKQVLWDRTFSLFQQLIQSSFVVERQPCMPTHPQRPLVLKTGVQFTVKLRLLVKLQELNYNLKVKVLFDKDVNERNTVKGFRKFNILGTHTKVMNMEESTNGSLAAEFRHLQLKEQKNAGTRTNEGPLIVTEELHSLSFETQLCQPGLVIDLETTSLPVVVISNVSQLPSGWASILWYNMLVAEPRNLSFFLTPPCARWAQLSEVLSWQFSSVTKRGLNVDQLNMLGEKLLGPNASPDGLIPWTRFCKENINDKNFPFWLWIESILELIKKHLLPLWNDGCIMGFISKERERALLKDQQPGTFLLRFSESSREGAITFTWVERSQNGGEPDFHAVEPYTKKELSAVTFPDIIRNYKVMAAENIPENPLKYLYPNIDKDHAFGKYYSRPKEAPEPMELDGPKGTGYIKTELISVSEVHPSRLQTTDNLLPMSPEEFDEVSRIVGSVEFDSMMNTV
Put plainly: Inhibition of IFN-gamma-stimulated STAT1 (unknown origin) activity at 10 uM.

The species entered for test [4] is Homo sapiens. In words: Inhibition of TNF-alpha-stimulated NF-kappaB (unknown origin) activity at 10 uM.
The test system of test [5] is HepG2. Put plainly: Effect on JAK2 level in IL-6 stimulated human HepG2 cells at 50 uM treated for 6 hrs before IL-6 stimulation measured after 15 mins by Western blot analysis. It counts as functional, cell-based.
Test [6] addresses T1, Signal transducer and activator of transcription 3. Put plainly: Inhibition of STAT3 phosphorylation at Tyr705 in IL-6 stimulated human HepG2 cells at 50 uM treated for 6 hrs before IL-6 stimulation measured after 15 mins by Western blot analysis. It is filed as cell-based. On the technique in general: Immunoblotting shows a protein as a band on a membrane.
Test [7] relates to MDA-MB-468. In words: Cytotoxicity against human MDA-MB-468 cells harboring constitutively harboring activated STAT3 assessed as inhibition of cell viability after 72 hrs by MTT assay. It is filed as functional, cell-based. To be noted: MDA-MB-468, 72 h.
In test [8] the target is Tyrosine-protein kinase JAK2 (Homo sapiens) (UniProt O60674). Put plainly: Effect on JAK2 phosphorylation in IL-6 stimulated human HepG2 cells at 50 uM treated for 6 hrs before IL-6 stimulation measured after 15 mins by Western blot analysis. It is filed as cell-based.
Test [9] has as its system HepG2. In words: Effect on STAT3 level in IL-6 stimulated human HepG2 cells at 50 uM treated for 6 hrs before IL-6 stimulation measured after 15 mins by Western blot analysis. It counts as functional, cell-based.
Test [10] has as its target T1, Signal transducer and activator of transcription 3. In words: Inhibition of STAT3 phosphorylation at Tyr705 in IL-6 stimulated human HepG2 cells treated for 6 hrs before IL-6 stimulation measured after 15 mins by Western blot analysis. It is filed as cell-based.
For test [11] the target is unchanged. In words: Inhibition of STAT3 in IL-6-stimulated human HepG2 cells treated for 1 hr prior to IL-6 challenge measured after 5.5 hrs by luciferase reporter gene assay. It counts as cell-based.

T1 sequence (P40763 whole entry): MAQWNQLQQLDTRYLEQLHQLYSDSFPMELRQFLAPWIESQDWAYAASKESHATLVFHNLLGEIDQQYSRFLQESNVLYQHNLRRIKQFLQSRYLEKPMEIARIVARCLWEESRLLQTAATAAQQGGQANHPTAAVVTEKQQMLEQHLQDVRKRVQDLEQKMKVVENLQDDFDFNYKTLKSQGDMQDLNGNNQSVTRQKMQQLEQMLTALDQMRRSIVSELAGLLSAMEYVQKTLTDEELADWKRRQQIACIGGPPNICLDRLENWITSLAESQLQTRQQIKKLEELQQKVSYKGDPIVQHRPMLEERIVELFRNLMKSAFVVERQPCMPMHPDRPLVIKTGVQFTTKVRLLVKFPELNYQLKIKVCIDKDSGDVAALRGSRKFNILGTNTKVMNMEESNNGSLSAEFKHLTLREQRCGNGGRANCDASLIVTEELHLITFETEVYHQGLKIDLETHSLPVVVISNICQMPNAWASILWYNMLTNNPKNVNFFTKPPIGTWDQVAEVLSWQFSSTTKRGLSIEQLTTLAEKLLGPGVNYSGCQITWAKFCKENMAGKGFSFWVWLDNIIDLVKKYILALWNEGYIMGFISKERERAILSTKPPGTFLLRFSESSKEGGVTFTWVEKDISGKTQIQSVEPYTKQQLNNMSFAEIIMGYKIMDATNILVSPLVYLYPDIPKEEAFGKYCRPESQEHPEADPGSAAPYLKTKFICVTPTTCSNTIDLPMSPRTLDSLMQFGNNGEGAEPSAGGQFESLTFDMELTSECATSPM
Sequence of Tyrosine-protein kinase JAK2 (Homo sapiens) (O60674 whole entry): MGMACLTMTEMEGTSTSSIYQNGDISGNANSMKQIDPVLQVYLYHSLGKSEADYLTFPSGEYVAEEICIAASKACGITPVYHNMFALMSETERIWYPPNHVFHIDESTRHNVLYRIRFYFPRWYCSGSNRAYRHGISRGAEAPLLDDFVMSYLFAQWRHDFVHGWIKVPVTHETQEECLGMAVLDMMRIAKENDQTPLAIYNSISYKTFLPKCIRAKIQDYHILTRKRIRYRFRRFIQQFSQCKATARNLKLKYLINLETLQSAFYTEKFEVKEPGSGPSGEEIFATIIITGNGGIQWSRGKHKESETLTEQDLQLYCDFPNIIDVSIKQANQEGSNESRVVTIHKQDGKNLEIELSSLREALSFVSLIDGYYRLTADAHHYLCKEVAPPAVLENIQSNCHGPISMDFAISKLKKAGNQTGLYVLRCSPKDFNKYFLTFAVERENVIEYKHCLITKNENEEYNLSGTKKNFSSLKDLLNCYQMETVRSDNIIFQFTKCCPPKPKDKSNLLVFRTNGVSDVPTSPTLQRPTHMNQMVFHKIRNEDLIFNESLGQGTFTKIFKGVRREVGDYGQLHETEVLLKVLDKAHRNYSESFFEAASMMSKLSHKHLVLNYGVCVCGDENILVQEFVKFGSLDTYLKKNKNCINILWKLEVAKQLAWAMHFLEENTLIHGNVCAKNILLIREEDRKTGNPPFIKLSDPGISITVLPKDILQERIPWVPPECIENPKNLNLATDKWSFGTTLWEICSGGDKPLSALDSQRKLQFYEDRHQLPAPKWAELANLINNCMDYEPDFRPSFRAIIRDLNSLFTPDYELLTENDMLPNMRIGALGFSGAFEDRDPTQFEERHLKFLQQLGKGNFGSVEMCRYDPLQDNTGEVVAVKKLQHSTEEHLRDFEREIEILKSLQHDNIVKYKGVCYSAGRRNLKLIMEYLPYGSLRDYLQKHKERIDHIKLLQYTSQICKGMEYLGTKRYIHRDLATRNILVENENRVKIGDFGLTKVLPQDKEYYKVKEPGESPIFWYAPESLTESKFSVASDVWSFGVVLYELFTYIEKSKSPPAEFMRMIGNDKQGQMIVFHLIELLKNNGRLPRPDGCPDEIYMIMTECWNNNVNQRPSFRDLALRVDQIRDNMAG

What is called inhibition is the drop in the measured response relative to a control, in per cent. Regarding `COc1ccc(C(=O)Nc2ccc3nc(SCC(=O)NCc4ccc(F)cc4)sc3c2)cc1`, in test [1], the inhibition at 10 µM was 5.48%.
With `COc1ccc(C(=O)Nc2ccc3nc(SCC(=O)Nc4ccc(F)c(Cl)c4)sc3c2)cc1`, in [1], the inhibition at 10 µM was 2.47%.
For the compound `CCc1cccc(CC)c1NC(=O)CSc1nc2ccc(NC(=O)c3cccnc3)cc2s1`, in test [2], the inhibition is 14.4%. The inhibition at 10 µM in [1] worked out at 8.23%.
The like results for `CCCCCOc1ccc(C(=O)Nc2ccc3nc(SCC(=O)Nc4c(CC)cccc4CC)sc3c2)cc1` were, in that order, 18.9% and 24.1%.
For `COc1ccc(C(=O)Nc2ccc(C(=O)OCC(=O)c3cccc([N+](=O)[O-])c3)cc2)cc1OC`, the inhibition in test [3] was 13.8%; in [2], 38.5%; in [4] it was -4.32%.
As for `CCCC(C)Oc1ccc(C(=O)Nc2ccc3nc(SCC(=O)Nc4c(CC)cccc4CC)sc3c2)cc1` (centres undefined), in test [2], the inhibition turned out to be 25.8%. Besides, the inhibition at 10 µM in [1] was determined as 34.9%.
Turning to `CCCCOc1ccc(C(=O)Nc2ccc3nc(SC(C)C(=O)Nc4c(C)cc(C)cc4C)sc3c2)cc1` (centres undefined), the inhibition in test [2] turned out to be 21.5%.
For the compound `CCc1cccc(CC)c1NC(=O)CSc1nc2ccc(NC(=O)Cc3ccccc3OC)cc2s1`, in [1], the inhibition at 10 µM is -12.3%.
Usually IC50 stands for the midpoint of a concentration-inhibition curve. As to `CCCC(C)Oc1ccc(C(=O)Nc2ccc3nc(SCC(=O)N[C@@H](C)c4ccccc4)sc3c2)cc1` (some centres undefined), the result in [5], in test [8] and in test [9] was inactive. For the same compound, in test [2], the inhibition came out at 51.1%. In addition, the inhibition at 10 µM in test [1] stood at 51.4%. In addition, the inhibition entry in [6] is “Active”. In addition, the IC50 in test [7] came to 16.1 µM.
As for `COc1cc(/C=C/C(=O)CC(=O)/C=C/c2ccc(O)c(OC)c2)ccc1O` [CURCUMIN], the inhibition result is “Dose-dependent effect” in test [10] and 30.7% in test [2]. For the same compound, the IC50 worked out at 19.2 µM in [11] and 196 µM in [7]. Besides, in test [1], the inhibition at 10 µM stood at 3.88%.
As to `COc1ccc(C(=O)Nc2ccc3nc(SCC(=O)Nc4c(C)cccc4C)sc3c2)cc1`, in test [2], the inhibition is -5.89%. For the same compound, in test [1], the inhibition at 10 µM amounted to 5.01%.
`COc1ccc(NCc2nnc(SCC(=O)Nc3cccc4ccccc34)n2-c2ccc(OC)cc2)cc1`: in test [2], the inhibition was found to be 24%.
Take `CCCCOc1ccc(C(=O)Nc2ccc3nc(SCC(=O)Nc4c(CC)cccc4CC)sc3c2)cc1`: the inhibition in [2] was found to be 49.5%.
With `CCC(Sc1nc2ccc(NC(=O)c3ccc(OC)cc3)cc2s1)C(=O)Nc1ccc(Br)cc1` (centres undefined), the result in test [5], in [8] and in test [9] was inactive. The inhibition in test [3] stood at 6.17%; in test [2] it was 34.8%. In addition, the inhibition at 10 µM in test [1] worked out at 66.4%. Further, the inhibition result in test [6] is “Active”. Also, the IC50 in [7] is 8.83 µM.
Turning to `CCc1cccc(CC)c1NC(=O)CSc1nc2ccc(NC(=O)c3ccc([N+](=O)[O-])cc3)cc2s1`, the inhibition in test [2] was -5.71%. In addition, the inhibition at 10 µM in test [1] turned out to be 6.13%.
Turning to `COc1ccc(C(=O)Nc2ccc3nc(SCC(=O)N[C@@H](C)c4ccccc4)sc3c2)cc1`, in [2], the inhibition is 43%. The inhibition at 10 µM in test [1] is -44.7%.
The like results for `CCc1cccc(CC)c1NC(=O)CSc1nc2ccc(NC(=O)C(C)Cl)cc2s1` (centres undefined) were, in that order, -7.98% and -4.54%.
The like results for `CCCCCOc1ccc(C(=O)Nc2ccc3nc(SCC(=O)N[C@@H](C)c4ccccc4)sc3c2)cc1` were, in that order, 30.7% and 61.1%.
For the compound `O=C(CSc1nc2ccc(NC(=O)c3ccccc3)cc2s1)Nc1ccc(F)c(Cl)c1`, the inhibition at 10 µM in [1] was 9.04%.
As to `COc1ccc(C(=O)Nc2ccc3nc(SCC(=O)NCc4ccc([N+](=O)[O-])cc4)sc3c2)cc1`, in test [2], the inhibition is 23.8%. Besides, the inhibition at 10 µM in test [1] was -20.4%.
For `CCc1cccc(CC)c1NC(=O)CSc1nc2ccc(NC(=O)c3ccc(OC)cc3)cc2s1`, the inhibition at 10 µM in test [1] is -0.77%.
As to `CCc1cccc(CC)c1NC(=O)CSc1nc2ccc(NC(=O)C3CC3)cc2s1`, the inhibition in test [2] is -9.23%. For the same compound, in test [1], the inhibition at 10 µM turned out to be 32.4%.
The like results for `CCCCOc1ccc(C(=O)Nc2ccc3nc(SCC(=O)N[C@@H](C)c4ccccc4)sc3c2)cc1` were, in that order, 30.9% and 57.2%.
As for `C[C@H](NC(=O)CSc1nc2ccc(NC(=O)c3ccc(OCc4ccccc4)cc3)cc2s1)c1ccccc1`, in test [2], the inhibition is 11.5%. Moreover, in [1], the inhibition at 10 µM was determined as 3.02%.
The like results for `CCC(=O)Nc1ccc2nc(SCC(=O)Nc3c(CC)cccc3CC)sc2c1` were, in that order, 2.36% and -12%.
Consider `CCc1cccc(CC)c1NC(=O)CSc1nc2ccc(NC(=O)c3ccccc3OC)cc2s1`, for which the inhibition in test [2] stood at 25.8%. Also, in test [1], the inhibition at 10 µM came out at 23.9%.
The like results for `CCc1cccc(CC)c1NC(=O)CSc1nc2ccc(NC(=O)C(C)C)cc2s1` were, in that order, -8.31% and -17.4%.
The like results for `COc1ccc(C(=O)Nc2ccc3nc(SCC(=O)N[C@H](C)c4ccccc4)sc3c2)cc1` were, in that order, -0.31% and -56.8%.
On to `COc1ccccc1C(=O)Nc1ccc2nc(SCC(=O)Nc3c(C)cccc3C)sc2c1`, for which, in [2], the inhibition was 21.5%. For the same compound, in [1], the inhibition at 10 µM is 39%.
Regarding `CCc1cccc(CC)c1NC(=O)CSc1nc2ccc(NC(=O)c3ccc(OCc4ccccc4)cc3)cc2s1`, the inhibition in test [2] stood at 22.6%. In test [1], the inhibition at 10 µM is 44.6%.
The like results for `CCc1cccc(CC)c1NC(=O)CSc1nc2ccc(NC(=O)c3ccncc3)cc2s1` were, in that order, 39.1% and 12.6%.
